Target: human Pin1 (Homo sapiens, UniProt Q13526)
Assay: IC50 measurement of inhibitors for Pin1 (chymotrypsin-coupled peptidyl-prolyl isomerase assay, SucAEPF-pNA)
Format: biochemical
Conditions: cis substrate SucAEPF-pNA 43.2 μM, 31 mM HEPES pH 7.8, 4° C., absorbance at 390 nm; read-out: IC50 value for the inhibition of human Pin1 peptidyl-prolyl isomerase activity
Description: Measurement of human Pin1 peptidyl-prolyl isomerase activity. The concentration of the cis conformation of substrate, SucAEPF-pNA, was determined by the UV absorbance of pNA (ε=12250 at […]) after cleavage by α-chymotrypsin. The cis component of the substrate was approximately 51%. The assay buffer (1050 μL of 35 mM HEPES, pH 7.8 at 0° C.; final concentration 31 mM HEPES) and Pin1 (10 μL of a 8.0 μM stock solution, concentration measured by Bradford assay, final concentration 67 nM) were pre-equilibrated in the spectrometer until the temperature reached 4.0° C. Immediately before the assay was started, 120 μL of ice-cooled α-chymotrypsin solution (60 mg/mL in 0.001 M HCl; final concentration 6 mg/mL) was added. Additional substrate solvent (0.47 M LiCl/TFE) was added as needed to bring the total volume of substrate and cosolvent to 10 μL. The peptide substrate, dissolved in dry 0.47 M LiCl/TFE, was added to the cuvette via syringe and the solution was mixed vigorously by inversion 3 times. The final volume in a semi micro 1 cm path length polystyrene cell was 1.2 mL.
IC50 measurement of inhibitors for Pin1. Human Pin1 was assayed at a cis substrate concentration of 43.2 μM. […] After a mixing delay of 6-8 sec, the progress of the reaction was monitored by absorbance at 390 nm for 90 sec.

Sequence of human Pin1 (Q13526 whole entry): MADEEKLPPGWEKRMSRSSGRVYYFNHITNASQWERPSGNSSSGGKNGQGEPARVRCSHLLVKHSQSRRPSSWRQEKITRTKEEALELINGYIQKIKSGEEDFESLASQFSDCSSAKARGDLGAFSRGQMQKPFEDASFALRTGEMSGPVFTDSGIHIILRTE

Q: Which IC50 does the source give for `CC(=O)N[C@@H](Cc1ccccc1)C(=O)N[C@@H](Cc1ccc(O)cc1)C(=O)N[C@H](/C=C1/CCC[C@H]1C(=O)N[C@@H](CCCNC(=N)N)C(N)=O)COP(=O)(O)O` [Ac-Phe-Tyr-phosphoSer-Ψ[(Z)CH═C]-Pro-Arg-NH2] here?
A: 970 nM

Source: US20080261923A1, “Alkene Mimics” (priority 2004, published 2008)
